Data taken from patent publication US11207308B2, “Pharmaceutical compositions for combination therapy” (PRILENIA NEUROTHERAPEUTICS LTD., priority 2012, dated 2021).
Several values for one entry are separate records, joined by “and”; a condition that tells them apart may be missing. Equal entries are not always repeated. Where two headings read alike, the source gives them in different places.

Experiments:
Male Sprague-Dawley rats [1] = details: for Locomotor activity, % of Tetrabenazine control group mean: full hour of recording
Excerpt: No brain tissue was collected from this experiment. […] Each activity monitor consists of a quadratic metal frame equipped with photobeam sensors. […] Each activity monitor is equipped with three rows of infrared photobeam sensors, each row consisting of 16 sensors. […] Photobeam sensors are spaced 2.5 cm apart. Each activity monitor is fitted in an identical sound and light attenuating box (W×L×H—55×55×45) containing a weak house light and a fan. The computer software is written using object oriented programming (LabVIEW™, National instruments, Austin, Tex., USA). Behavioural data from each activity monitor, representing the position (horizontal center of gravity and vertical activity) of the animal at each time, are recorded at a sampling frequency of 25 Hz and collected using a custom written LABView™ application. The data from each recording session are stored and analyzed with respect to distance travelled. Each behavioural recording session lasts 60 min, starting approximately 4 min after the injection of test compound. The results are presented as counts/60 minutes, counts/45 minutes or counts/15 minutes, in arbitrary length units. Statistical comparisons are carried out using Student's t-test against the control group.

striatal dopamine [2] = assay: Striatal dopamine (DA) tissue level (HPLC/EC), dose-response in naive rats; type: in vivo, rat; details: mean ± SEM, percentage of vehicle control group mean
Experimental: (§1) Rats weighed 160-180 g at the time of arrival.
(§2) The treatment groups consisted of Vehicle (saline; NaCl 0.9% v/w) and ACR16 tested at three doses (11; 33 and 100 μmol/kg).
(§3) KR104: Animals were allocated into five different treatment groups, n=4.
(§4) All compounds were injected s.c. four minutes before start of locomotor activity recording at a volume of 5 ml/kg.
(§5) A digital sonifier (Branson Digital Sonifier 250-D) was used to homogenise tissue from the striatum and limbic region. […] All samples were centrifuged at 10.000 rpm for 10 minutes at +4° C. Cortex tissue was filtered in Munktell filter paper 5.5 cm quality 1 F. Tissue eluates were analysed with respect to tissue concentrations (ng/g tissue) of the monoamine transmitter substances (Norepinephrine (NA), dopamine (DA), 5-hydroxytryptamine (5-HT)) as well as their amine metabolites (normetanephrine (NM), 3-methoxytyramine (3-MT)) and acid metabolites ([…] (DOPAC), 5-hydrocyindoleacetic acid (5-HTAA), homovanillic acid (HVA)) by HPLC separations and electrochemical detection (HPLC/EC). Stock standards (DA, NA, 5-HT, 3-MT, DOPAC, HVA, HIAA, 500 μg/ml) and internal standard (AMDA 500 μg/ml) are prepared once every three months. 5-HT and 5HIAA are dissolved in milliQ water. DA, NA, DOPAC, NM, 3-MT and HVA are dissolved in 0.01 M HCl. 5-HT, 5-HIAA, NM and HVA are kept in fridge; DA, DOPAC, NA and 3-MT are kept in freezer.
(§6) Detection potentials relative to Ag/AgCl reference are 0.45 and 0.60V. […] Detection potentials relative to Ag/AgCl reference are 0.45 and 0.65V.

Male Sprague-Dawley rats [3] = assay: Spontaneous locomotor activity, dose-response in drug-naive rats; type: in vivo, rat; details: for Spontaneous locomotor activity, % of the vehicle control group mean: full hour of recording
Experimental: as §1, §2, §3, §4
During measurements of behavioural activity, a rat is put in a transparent acrylic cage with matted black floor (W×L×H, 41×41×30 cm) which in turn is placed in the activity monitor. […] Two rows are placed along the front and the side of the floor of the cage, at a 90 degree angle, and the third row is placed 10 cm above the floor to measure vertical activity. Photobeam sensors are spaced 2.5 cm apart.

Arc mRNA [4] = assay: Arc gene expression (Arc mRNA, real-time PCR) in striatum and frontal cortex, interaction with Tetrabenazine
striatal DOPAC [5] = assay: Striatal DOPAC tissue level (HPLC/EC), dose-response in naive rats; type: in vivo, rat; details: mean ± SEM, percentage of vehicle control group mean
Experimental: as §1, §2, §3, §4, §5, §6

striatal dopamine [6] = assay: Striatal dopamine (DA) tissue level (HPLC/EC), interaction with Tetrabenazine; details: percentage of Tetrabenazine control group mean
striatal DOPAC [7] = assay: Striatal DOPAC tissue level (HPLC/EC), interaction with Tetrabenazine; details: percentage of Tetrabenazine control group mean
Arc mRNA [8] = assay: Arc gene expression (Arc mRNA, real-time PCR) in striatum and frontal cortex, dose-response studies; type: in vivo, rat
Experimental: as §1, §4
Reference genes are HPRT and cyclophilin.
Correct PCR products are confirmed by agarose gel electroforesis (2%) PCR products are purified with PCR purification kit from Qiagen (Valencia, Calif., USA). All genes are sequenced at MWG, Germany.
For the data shown in FIG. 6, the reverse transcription and PCR were performed as follows:
Reversed transcription is performed by using a ThermoScript kit (Invitrogen).
cDNA of Arc and two reference genes, hypoxanthine-guanine phosphoribosyltransferase (HPRT) and cyclophilin A, was amplified by real-time PCR in either a triplex reaction (Tetrabenazine studies) or three singleplex reactions (studies with Pridopidine and haloperidol).

[9] = 0.04 mg/kg s.c. together with Tetrabenazine 0.64 mg/kg
[10] = 0.12 mg/kg s.c. together with Tetrabenazine 0.64 mg/kg

## O=C(CCCN1CCC(O)(c2ccc(Cl)cc2)CC1)c1ccc(F)cc1 [Haloperidol]
Male Sprague-Dawley rats [1]; 0.04 mg/kg s.c. combined with Tetrabenazine 0.64 mg/kg
  Locomotor activity, % of Tetrabenazine control group mean: 51%
Male Sprague-Dawley rats [1]; 0.12 mg/kg s.c. combined with Tetrabenazine 0.64 mg/kg
  Locomotor activity, % of Tetrabenazine control group mean: 41%
Male Sprague-Dawley rats [1]; 15-60 min period, combined with Tetrabenazine 0.64 mg/kg, vs Tetrabenazine control
  Locomotor activity in Tetrabenazine treated rats, 15-60 min (in words): the reduction was significant for the 0.12 mg/kg dose only
Male Sprague-Dawley rats [1]; combined with Tetrabenazine 0.64 mg/kg s.c.
  Effect on Tetrabenazine induced locomotor activity reduction (in words): further reduced locomotor activity in animals treated with Tetrabenazine
Male Sprague-Dawley rats [1]; first 15 min, combined with Tetrabenazine 0.64 mg/kg, vs Tetrabenazine control
  Locomotor activity in Tetrabenazine treated rats, 0-15 min (in words): this reducing effect was significant at both the 0.04 mg/kg (P<0.01) and the 0.12 mg/kg (P<0.05) doses
Striatal dopamine [2]; 0.04 mg/kg s.c.
  DA striatum, dose-response in naive rats: 95 ± 5%
Striatal dopamine [2]; 0.12 mg/kg s.c.
  DA striatum, dose-response in naive rats: 78 ± 3 %
Striatal dopamine [2]; 0.37 mg/kg s.c.
  DA striatum, dose-response in naive rats: 79 ± 5 %
Striatal dopamine [2]; 1.1 mg/kg s.c.
  DA striatum, dose-response in naive rats: 81 ± 2 %
Male Sprague-Dawley rats [3]; 0.37 mg/kg s.c.
  Spontaneous locomotor activity, % of the vehicle control group mean: about 35%
Male Sprague-Dawley rats [3]; 1.1 mg/kg s.c.
  Spontaneous locomotor activity, % of the vehicle control group mean: about 35%
Male Sprague-Dawley rats [3]; 15-60 minutes post dosing, vs vehicle control
  Spontaneous locomotor activity, period 15-60 minutes post dosing (in words): a significant effect (P<0.05) was observed for the 1.1 mg/kg dose group only
Male Sprague-Dawley rats [3]; all doses tested, s.c., 60 min recording
  Effect on spontaneous locomotor activity (in words): dose-dependent inhibitory effect on spontaneous locomotor activity
Male Sprague-Dawley rats [3]; initial 15 min of recording, vs vehicle control
  Spontaneous locomotor activity, initial 15 min (in words): significant reductions (P<0.05) were seen both for the 0.37 and 1.1 mg/kg haloperidol dose groups
Male Sprague-Dawley rats [3]; s.c., not at the lowest dose tested, 0.04 mg/kg
  Doses with statistically significant effects on spontaneous locomotor activity: ≥ 0.12 mg/kg
Arc mRNA [4]; 0.04 mg/kg s.c. coadministered with Tetrabenazine 0.64 mg/kg
  Striatal Arc, % of the Tetrabenazine control group mean: 272%
Arc mRNA [4]; 0.12 mg/kg s.c. coadministered with Tetrabenazine 0.64 mg/kg
  Striatal Arc, % of the Tetrabenazine control group mean: 400%
Arc mRNA [4]; 0.04 and 0.12 mg/kg s.c. with Tetrabenazine 0.64 mg/kg
  Cortical Arc gene expression in rats co-treated with Tetrabenazine (in words): no significant effect
Striatal DOPAC [5]; 0.04 mg/kg s.c.
  DOPAC striatum, dose-response in naive rats: 171 ± 35%
Striatal DOPAC [5]; 0.12 mg/kg s.c.
  DOPAC striatum, dose-response in naive rats: 276 ± 8 %
Striatal DOPAC [5]; 0.37 mg/kg s.c.
  DOPAC striatum, dose-response in naive rats: 254 ± 17 %
Striatal DOPAC [5]; 1.1 mg/kg s.c.
  DOPAC striatum, dose-response in naive rats: 292 ± 10 %
Striatal dopamine [6]; [9]
  DA striatum, interaction with Tetrabenazine: 79 ± 3 %
Striatal dopamine [6]; [10]
  DA striatum, interaction with Tetrabenazine: 87 ± 10%
Striatal DOPAC [7]; [9]
  DOPAC striatum, interaction with Tetrabenazine: 187% and 187 ± 6 %
Striatal DOPAC [7]; [10]
  DOPAC striatum, interaction with Tetrabenazine: 218% and 218 ± 12 %
Arc mRNA [8]; 0.12 mg/kg s.c.
  Arc mRNA in the striatum, % of the vehicle control group mean: 262%
Arc mRNA [8]; 0.37 mg/kg s.c.
  Arc mRNA in the striatum, % of the vehicle control group mean: 331%
Arc mRNA [8]; 1.1 mg/kg s.c.
  Arc mRNA in the striatum, % of the vehicle control group mean: 409%
Arc mRNA [8]; dose-response, 0.12, 0.37 and 1.1 mg/kg s.c.
  Cortical Arc gene expression (in words): no significant effect
